“Also recorded” adds a separate entry of the source. Like-named read-outs stand apart in the source and are kept apart here.
Columns and labels:
Glewwe foam test = format: physicochemical
Procedure: A test was run to determine the foam profiles of the five quat solutions of Example 1. A Glewwe foam apparatus in combination with the following procedure was used for this test. First, each quat was prepared and gently poured into a Glewwe cylinder. Samples tested contained a concentration of 50 ppm of the indicated antimicrobial quats. A ruler was attached to the side of the cylinder, and the solution was level with the bottom of the ruler. The pump was turned on. Foam height was estimated by reading the average level of foaming according to the ruler. Foam height readings were taken versus time with a stopwatch or timer. The pump was turned off and height of the foam was recorded at various times. […] The foam level was read after 15 seconds of agitation and again after 60 seconds of agitation for a given amount of time. A stable foam is defined when the foam remains for several minutes after agitation is stopped. A partially stable foam breaks slowly within a minute. An unstable foam breaks rapidly in less than 15 seconds. A desirable rinse should have unstable foam to no foam. In contrast, antimicrobial hand soap should have stable foam.
The results from the foaming test are shown in FIG. 2, and described in Table 3 below.
Another foam evaluation test was run using the procedure described in Example 2.
The inclusion of additional additives (defoamer and solubilizer/booster, such as Emulsogen) to the Quat-Anionic surfactant pairs were also analyzed, provided in Table 5 below (5A-5B), using the procedure described in Example 2.

[1] = Dynamic surface tension (SITA science line t60, bubble pressure); format: physicochemical
Procedure: The SITA science line t60 measures the dynamic surface tension of liquids up to the semi-static range. Air bubbles are generated from a capillary with known radius. The bubble pressure is measured as a function of bubble life time, which can be correlated to the surface tension according to the Young-Laplace equation. […] The dynamic surface tension behavior of surfactants is particularly important in applications where a quick response of surfactant is required, for example, in short rinse cycles of automated dishwashing.
The SITA science line t60 was calibrated with DI water. […] Following calibration, the SITA was programmed to take readings at the desired time intervals (i.e., 0.3, 1.6, 3.0, 9.1 seconds).
10-15 mL were transferred into 20 mL vials and immersed in a water bath to 25° C.±2° C. The samples were equilibrated for 10-15 minutes. The samples were individually tested. After each sample was tested the SITA's cleaning procedure was run, then the surface tension of DI water was checked to ensure the SITA was adequately clean. If the DI water measurements were not within 72.0±1.0 mN/m, then the cleaning procedure was run again. […]

[2] = test system: Escherichia coli ATCC 11229; assay: Low temperature warewash sanitizing rinse test; format: cell-based; details: anionic surfactant paired with quaternary ammonium compound, in this study
Procedure: The sanitizing efficiency was determined for the experimental formulas of Table 8A-8B using the following procedure: • 1.) Set up low temperature ware wash machine to our specific settings (see 7-cycle procedure) • a. Set water Temperature (120° F.) • b. Check water Hardness (4-6 gpg) • c. Set water flow rate • d. Hand dose in chemistry, no need to set up (50 ppm Quat, 50 ppm Bleach) • e. Watch these variables throughout tests • 2.) Have 10 processed Libby glasses for each tested chemistry run • a. 5 will be unwashed controls • b. 5 will be washed to detect kill • 3.) Have enough sterile tubs to hold glasses—supplied by Micro • a. Max 20 glasses per tub, or 2 runs • 4.) Have enough swabs to collect specimen—supplied by Micro • a. Need 2 per run or 1 swab per 5 glasses • 5.) Have 1 buffer solution tube per 5 glasses, 2 per run • 6.) Have Micro bring in an E. coli suspension • 7.) Get 10 glasses ready in easy reach • 8.) Fill one glass, an inch from the top, with E. coli suspension • a. Start timer for 10 minutes at this point • 9.) Pour E. coli Suspension from first glass into second glass, from second glass into third, and so on • 10.) Dip the top inch of each soiled glass into E. coli suspension to coat rim • 11.) Set glasses upside down in a sterile tub and let dry for 10 minutes • 12.) Swab 5 of the 10 glasses as your test control group • a. […]

Row | Molecule | antimicrobial synergy with quat, in words [2] | Foaming Profile (Glewwe foam test) | Dynamic Surface Activity [1] | other results
1 | Alkyl Benzyl ammonium chloride [Uniquat QAC-50] | – | – | – | Foaming Profile (Glewwe foam test; ranking 1-5, Glewwe Foam Test, 50 ppm Quat, 6psi, 140° F.): 1; Dynamic Surface Activity ([1]; ranking 1-5 among five quats, 100 ppm quat, 75° F.): 3
2 | CCCCCCCC(=O)O [Octanoic acid] | best antimicrobial synergy | – | – | –
3 | CCCCCCCCCC(=O)O [Decanoic acid] | best antimicrobial synergy | – | – | –
4 | Dioctyl (C8) dimethyl ammonium chloride [Bardac LF80] | – | 5 | 5 | foam profile, in words (Glewwe foam test): lowest foam profile; Dynamic surface tension [1]: 69 mN/m; dynamic surface tension / surface activity, in words [1]: least surface active; also recorded: very low surface activity; also recorded: very little surface activity
5 | Didecyl (C10) dimethyl ammonium chloride [Bardac 2250] | – | 3 | 1 | –
